# Legend:
# [1] = target: human CYP2C9 (Homo sapiens, UniProt P11712); conditions: read-out: IC50 CYP2C9; recombinant human CYP2C9 15 nM, 150 μM MFC, 45 min, 37°C; mean (95% confidence interval)
# [2] = target: human CYP2C19 (Homo sapiens, UniProt P33261); conditions: read-out: IC50 CYP2C19; recombinant human CYP2C19 7.5 nM, 25 μM CEC, 30 min, 37°C; mean (95% confidence interval)
# [3] = target: CYP2B6 (Homo sapiens, UniProt P20813); conditions: concentrations up to 10 μM; pooled HLMs, 100 μM bupropion; data not shown
# CYP2B6, sequence (P20813 whole entry): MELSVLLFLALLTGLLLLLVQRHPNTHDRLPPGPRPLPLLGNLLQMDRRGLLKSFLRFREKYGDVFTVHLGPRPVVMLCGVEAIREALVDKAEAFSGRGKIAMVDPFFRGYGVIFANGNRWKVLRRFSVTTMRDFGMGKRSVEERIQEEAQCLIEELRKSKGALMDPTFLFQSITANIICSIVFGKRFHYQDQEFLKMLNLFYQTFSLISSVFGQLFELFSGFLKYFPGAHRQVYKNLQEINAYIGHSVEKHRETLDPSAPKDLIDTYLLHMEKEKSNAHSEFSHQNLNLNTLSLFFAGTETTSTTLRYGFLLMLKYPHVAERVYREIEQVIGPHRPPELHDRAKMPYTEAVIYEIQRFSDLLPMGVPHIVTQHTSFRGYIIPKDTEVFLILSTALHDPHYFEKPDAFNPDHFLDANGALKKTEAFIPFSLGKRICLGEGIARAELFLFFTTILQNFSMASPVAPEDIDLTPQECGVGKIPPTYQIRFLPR
# human CYP2C19, sequence (P33261 whole entry): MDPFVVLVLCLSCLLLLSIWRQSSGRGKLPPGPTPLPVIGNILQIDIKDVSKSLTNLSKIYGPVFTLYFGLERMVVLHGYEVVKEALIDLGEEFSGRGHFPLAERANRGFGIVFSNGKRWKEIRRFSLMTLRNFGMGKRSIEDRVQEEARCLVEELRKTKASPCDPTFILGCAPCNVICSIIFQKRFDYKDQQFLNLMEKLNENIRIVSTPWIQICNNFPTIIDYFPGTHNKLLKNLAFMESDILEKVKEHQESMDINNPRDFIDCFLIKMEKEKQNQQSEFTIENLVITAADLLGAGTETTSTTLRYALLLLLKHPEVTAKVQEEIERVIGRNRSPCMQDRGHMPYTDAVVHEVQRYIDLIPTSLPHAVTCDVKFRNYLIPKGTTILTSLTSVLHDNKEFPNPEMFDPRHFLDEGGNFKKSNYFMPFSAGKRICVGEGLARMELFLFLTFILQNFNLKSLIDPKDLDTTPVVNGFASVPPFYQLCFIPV
# human CYP2C9, sequence (P11712 whole entry): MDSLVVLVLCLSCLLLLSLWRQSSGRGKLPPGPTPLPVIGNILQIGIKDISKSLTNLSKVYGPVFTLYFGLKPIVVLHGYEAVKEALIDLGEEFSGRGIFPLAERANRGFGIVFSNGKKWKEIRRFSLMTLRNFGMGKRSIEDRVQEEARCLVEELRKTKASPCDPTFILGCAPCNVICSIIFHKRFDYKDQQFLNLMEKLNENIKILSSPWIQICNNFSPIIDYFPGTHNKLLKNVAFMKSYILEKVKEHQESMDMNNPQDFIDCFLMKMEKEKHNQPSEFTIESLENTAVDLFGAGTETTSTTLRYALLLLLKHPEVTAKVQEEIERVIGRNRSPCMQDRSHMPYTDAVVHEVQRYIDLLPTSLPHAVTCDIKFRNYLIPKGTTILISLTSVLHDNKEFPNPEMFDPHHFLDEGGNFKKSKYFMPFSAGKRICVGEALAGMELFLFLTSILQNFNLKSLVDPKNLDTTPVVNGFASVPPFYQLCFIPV
Compound,IC50 [1],IC50 [2],Inhibition of CYP2B6 [3]
O=C1C[C@H](c2ccc(O)cc2)Oc2cc(O)cc(O)c21 [(R)-naringenin],1600 nM,4900 nM,
O=C1C[C@@H](c2ccc(O)cc2)Oc2cc(O)cc(O)c21 [(S)-naringenin],3400 nM,1200 nM,
naringenin [rac-naringenin],,,No appreciable inhibition
